The term IC50 denotes the concentration needed to halve the response being measured.

Where a name gives a salt, the structure may show the parent alone.

One experiment deals with human PDE10A (UniProt Q9Y233). The experiment in a line: Measurement of PDE activity (recombinant enzyme, HTRF cAMP kit). The experiment is classed as biochemical. The note with it: Table 1, substrate 20 nM for PDE10, 60 minutes at 29 C. The gist of the method: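 HTRF detection of cAMP left after hydrolysis, expressed as percent of uninhibited control to derive IC50. Reaction: serially diluted inhibitor mixed with recombinant enzyme, started with 20 nM cAMP, 60 min at 29 °C in Tris-HCl pH 7.5 buffer containing MgCl2 and BSA.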
human PDE10A, sequence (Q9Y233 290-1055 limits assumed): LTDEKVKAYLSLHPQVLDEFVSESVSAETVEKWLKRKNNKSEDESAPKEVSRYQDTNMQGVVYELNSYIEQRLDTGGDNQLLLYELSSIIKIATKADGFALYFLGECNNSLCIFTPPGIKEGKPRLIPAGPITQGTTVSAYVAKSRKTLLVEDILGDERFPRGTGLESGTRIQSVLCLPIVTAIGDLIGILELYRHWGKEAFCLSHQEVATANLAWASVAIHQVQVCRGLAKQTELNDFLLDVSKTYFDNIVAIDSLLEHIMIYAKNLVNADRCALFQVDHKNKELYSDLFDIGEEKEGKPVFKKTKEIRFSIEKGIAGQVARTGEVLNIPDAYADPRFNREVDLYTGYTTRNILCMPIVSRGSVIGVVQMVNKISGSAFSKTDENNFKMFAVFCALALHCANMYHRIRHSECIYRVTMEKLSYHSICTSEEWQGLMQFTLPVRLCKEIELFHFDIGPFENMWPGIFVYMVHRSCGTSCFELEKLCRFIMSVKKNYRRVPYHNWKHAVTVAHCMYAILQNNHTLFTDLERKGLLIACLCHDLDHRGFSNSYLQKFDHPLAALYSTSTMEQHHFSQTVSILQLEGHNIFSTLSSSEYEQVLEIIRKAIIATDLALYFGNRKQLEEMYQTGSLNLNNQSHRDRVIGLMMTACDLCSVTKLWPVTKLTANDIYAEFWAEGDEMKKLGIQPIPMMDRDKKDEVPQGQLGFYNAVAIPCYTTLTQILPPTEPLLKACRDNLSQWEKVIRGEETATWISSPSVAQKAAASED
(In TR-FRET formats the signal depends on donor and acceptor labels being close together.)
For the compound `O=c1c2c(N3C4CCC3COC4)cccc2cnn1CCc1cn2ccccc2n1` [compound 338, 2-[2-(imidazo[1,2-a]pyridin-2-yl)ethyl]-8-(3-oxa-8-azabicyclo[3.2.1]oct-8-yl)phthalazin-1(2H)-one], the IC50 was under 0.1 µM.

The same experiment, now with this note: Table 1, substrate 20 nM for PDE10, 60 minutes at 29 C, read-out: IC50.
`O=c1c2c(N3CC4CCC(C3)O4)cccc2cnn1CCc1cn2ccccc2n1` [compound 349, 2-[2-(imidazo[1,2-a]pyridin-2-yl)ethyl]-8-(8-oxa-3-azabicyclo[3.2.1]oct-3-yl)phthalazin-1(2H)-one]: the IC50 is under 0.1 µM.
On the same count and under the same terms, next, `O=c1c2c(N3C[C@H]4CC[C@@H](C3)O4)cccc2ccn1C1CC1c1ccc2ccccc2n1` (stereo partly drawn) [Example 266, 8-((1R,5S)-8-oxa-3-azabicyclo[3.2.1]octan-3-yl)-2-(2-(quinolin-2-yl)cyclopropyl)isoquinolin-1(2H)-one]: under 0.1 µM; `O=c1c2c(-c3ccc4cc[nH]c4c3)cccc2cnn1CCc1ccc2ccccc2n1` [Example 123, 8-(1H-Indol-6-yl)-2-[2-(quinolin-2-yl)ethyl]phthalazin-1(2H)-one]: 0.2 to 0.5 µM; `O=c1c2c(OCC3COC(CO)CO3)cccc2cnn1CCc1cn2ccccc2n1` (stereo not shown) [compound 378, 8-{[5-(hydroxymethyl)-1,4-dioxan-2-yl]methoxy}-2-[2-(imidazo[1,2-a]pyridin-2-yl)ethyl]phthalazin-1(2H)-one]: 0.2 to 0.5 µM.
As for `O=c1c2c(N[C@H]3CCOC3)cccc2cnn1CCc1cn2ccccc2n1` [compound 376, 2-[2-(imidazo[1,2-a]pyridin-2-yl)ethyl]-8-[(3S)-tetrahydrofuran-3-ylamino]phthalazin-1(2H)-one], the IC50 is under 0.1 µM.
Regarding `O=c1c2c(C3CCOC3)cccc2cnn1CCc1cn2ccccc2n1` (stereo not shown) [compound 337, 2-[2-(imidazo[1,2-a]pyridin-2-yl)ethyl]-8-(tetrahydrofuran-3-yl)phthalazin-1(2H)-one], the IC50 is under 0.1 µM.
On the same count and under the same terms, the figure for `Cc1ccccc1-c1csc2cnn(CCc3ccc4ccccc4n3)c(=O)c12` [Example 18, 3-(2-methylphenyl)-5-[2-(quinolin-2-yl)ethyl]thieno[2,3-d]pyridazin-4(5H)-one] is 0.2 to 0.5 µM; for `O=c1c2c(-c3cccc(F)c3F)csc2cnn1CCc1ccc2ccccc2n1` [Example 70, 3-(2,3-difluorophenyl)-5-[2-(quinolin-2-yl)ethyl]thieno[2,3-d]pyridazin-4(5H)-one] it is 0.1 to 0.2 µM; for `CN(C)C(=O)c1cccc(-c2cccc3cnn(CCc4ccc5ccccc5n4)c(=O)c23)c1` [Example 117, N,N-Dimethyl-3-{4-oxo-3-[2-(quinolin-2-yl)ethyl]-3,4-dihydrophthalazin-5-yl}benzamide] it is 0.1 to 0.2 µM.
In the case of `O=c1c2c(-c3ccncc3)csc2c(-c2ccncc2)nn1CCc1ccc2ccccc2n1` [Example 1, 3,7-Di(pyridin-4-yl)-5-[2-(quinolin-2-yl)ethyl]thieno[2,3-d]pyridazin-4(5H)-one], the IC50 was under 0.1 µM.
Same read-out and setting: the figure for `O=c1c2c(-c3ccc(F)cc3)csc2cnn1CCc1ccc2ccccc2n1` [Example 12, 3-(4-fluorophenyl)-5-[2-(quinolin-2-yl)ethyl]thieno[2,3-d]pyridazin-4(5H)-one] is under 0.1 µM; for `O=c1c2c(-c3cncnc3)coc2ccn1CCc1ccc2ccccc2n1` [Example 231, 3-(Pyrimidin-5-yl)-5-(2-(quinolin-2-yl)ethyl)furo[3,2-c]pyridin-4(5H)-one] it is under 0.1 µM.
Turning to `O=c1c2c(-c3ccncc3)csc2cnn1CC(F)(F)c1ccc2ccccc2n1` [Example 94, 5-[2,2-Difluoro-2-(quinolin-2-yl)ethyl]-3-(pyridin-4-yl)thieno[2,3-d]pyridazin-4(5H)-one], the IC50 was under 0.1 µM.
Still for that read-out and setting: the figure for `COc1ccc(-c2cccc3cnn(CCc4ccc5ccccc5n4)c(=O)c23)cc1` [Example 104, 8-(4-Methoxyphenyl)-2-[2-(quinolin-2-yl)ethyl]phthalazin-1(2H)-one] is 0.1 to 0.2 µM; for `O=c1c2c(-c3ccncc3)cccc2ccn1C1CC1c1ccc2ccccc2n1` (single isomer, unassigned; (-)) [Example 222b, (−) 8-(pyridin-4-yl)-2-(2-(quinolin-2-yl)cyclopropyl)isoquinolin-1(2H)-one] it is under 0.1 µM; for `O=c1c2c(N3CCS(=O)(=O)CC3)cccc2cnn1CCc1cn2ccccc2n1` [Example 175, 8-(1,1-Dioxidothiomorpholin-4-yl)-2-[2-(imidazo[1,2-a]pyridin-2-yl)ethyl]phthalazin-1(2H)-one] it is 0.1 to 0.2 µM.
As to `O=c1c2c(-c3ccncc3F)cccc2ccn1[C@@H]1C[C@H]1c1ccc2ccccc2n1` (relative stereo) [Example 242, anti 8-(3-fluoropyridin-4-yl)-2-(2-(quinolin-2-yl)cyclopropyl)isoquinolin-1(2H)-one], the IC50 is under 0.1 µM.
Regarding `O=c1c2c(-c3ccncc3)coc2ccn1CCc1cn2ccccc2n1` [Example 230, 5-(2-(Imidazo[1,2-a]pyridin-2-yl)ethyl)-3-(pyridin-4-yl)furo[3,2-c]pyridin-4(5H)-one hydrochloride], the IC50 is 0.1 to 0.2 µM.
Regarding `O=c1c2c(-c3cncnc3)cccc2c(Cl)cn1C1CC1c1ccc2ccccc2n1` (single isomer, unassigned) [Example 276, anti (−)-4-chloro-8-(pyrimidin-5-yl)-2-(2-(quinolin-2-yl)cyclopropyl)isoquinolin-1(2H)-one], the IC50 was under 0.1 µM.
The same measure, in the same setting: the figure for `Cc1noc(C)c1-c1csc2cnn(CCc3ccc4ccccc4n3)c(=O)c12` [Example 48, 3-(3,5-dimethyl-1,2-oxazol-4-yl)-5-[2-(quinolin-2-yl)ethyl]thieno[2,3-d]pyridazin-4(5H)-one] is under 0.1 µM; for `Cc1ncc(-c2csc3ccn(C4CC4c4ccc5ccccc5n4)c(=O)c23)cn1` (stereo not shown) [compound 284] it is under 0.1 µM; for `O=c1c2c(-c3ccncc3)csc2ccn1CCc1ccc2cccc(F)c2n1` [compound 307, 5-[2-(8-fluoroquinolin-2-yl)ethyl]-3-(pyridin-4-yl)thieno[3,2-c]pyridin-4(5H)-one] it is 0.2 to 0.5 µM.
On the same count and under the same terms, the figure for `O=c1c2cccc(-c3ccncc3)c2cnn1CCc1ccc2ccccc2n1` [Example 192, 5-(Pyridin-4-yl)-2-[2-(quinolin-2-yl)ethyl]phthalazin-1(2H)-one hydrochloride] is under 0.1 µM; for `COc1ccc(-c2cccc3cnn(CCc4ccc5ccccc5n4)c(=O)c23)cn1` [Example 133, 8-(6-Methoxypyridin-3-yl)-2-[2-(quinolin-2-yl)ethyl]phthalazin-1(2H)-one] it is under 0.1 µM.
As for `N#Cc1ccc(-c2cccc3cnn(CCc4ccc5ccccc5n4)c(=O)c23)cc1` [Example 103, 4-{4-Oxo-3-[2-(quinolin-2-yl)ethyl]-3,4-dihydrophthalazin-5-yl}benzonitrile], the IC50 is under 0.1 µM.
The same measure, in the same setting: the figure for `COc1ccc2nc(/C=C/n3ccc4scc(-c5ccncc5)c4c3=O)ccc2c1` [compound 410] is under 0.1 µM; for `O=c1c2c(N3CCOCC3)cccc2ccn1C1CC1c1ccc2ccccc2n1` (stereo not drawn) [Example 246, anti 8-morpholino-2-(2-(quinolin-2-yl)cyclopropyl)isoquinolin-1(2H)-one] it is under 0.1 µM; for `O=c1c2c(N3CCS(=O)(=O)CC3)cccc2cnn1CCc1ccc2ccccc2n1` [Example 173, 8-(1,1-Dioxidothiomorpholin-4-yl)-2-[2-(quinolin-2-yl)ethyl]-phthalazin-1(2H)-one] it is under 0.1 µM.
In the case of `O=c1c2c(-c3ccncc3)csc2cnn1CCc1nc2ccccc2[nH]1` [compound 317, hydrochloride], the IC50 is under 0.1 µM.
As for `O=c1c2c(-c3ccncc3)csc2ccn1C1CC1c1ccc2sccc2n1` (stereo not shown) [compound 292], the IC50 was under 0.1 µM.
Regarding `O=c1c2cccc(-c3cncnc3)c2cnn1CCc1ccc2ccccc2n1` [Example 193, 5-(Pyrimidin-5-yl)-2-[2-(quinolin-2-yl)ethyl]phthalazin-1(2H)-one hydrochloride], the IC50 was under 0.1 µM.
On the same count and under the same terms, the figure for `O=c1c2c(-c3ccncc3)cccc2cnn1C1CC1c1ccc2ccccc2n1` (racemic) [Example 226, anti (rac) 8-Pyridin-4-yl-2-(2-quinolin-2-yl-cyclopropyl)-2H-phthalazin-1-one 2,2,2,-trifluoroacetate] is under 0.1 µM.
As for `COc1cncc(-c2csc3cnn(CCc4ccc5ccccc5n4)c(=O)c23)c1` [Example 52, 3-(5-methoxypyridin-3-yl)-5-[2-(quinolin-2-yl)ethyl]thieno[2,3-d]pyridazin-4(5H)-one], the IC50 was 0.1 to 0.2 µM.
As to `O=c1c2c(N3CC4CCOC4C3)cccc2cnn1CCc1cn2ccccc2n1` (stereo not shown) [compound 374, hydrochloride], the IC50 lay in the range of 0.2 to 0.5 µM.
Still for that read-out and setting: next, `Cn1cc(-c2nn(CCc3cn4ccccc4n3)c(=O)c3c(-c4ccncc4)csc23)cn1` [compound 303, 5-[2-(imidazo[1,2-a]pyridin-2-yl)ethyl]-7-(1-methyl-1H-pyrazol-4-yl)-3-(pyridin-4-yl)thieno[2,3-d]pyridazin-4(5H)-one]: under 0.1 µM.
On the same count and under the same terms, next, `COc1cccc(-c2csc3cnn(CCc4ccc5ccccc5n4)c(=O)c23)c1` [Example 26, 3-(3-methoxyphenyl)-5-[2-(quinolin-2-yl)ethyl]thieno[2,3-d]pyridazin-4(5H)-one]: 0.2 to 0.5 µM.
Same read-out and setting: next, `O=c1c2c(-c3ccc(F)cc3)cccc2cnn1CCc1ccc2ccccc2n1` [Example 105, 8-(4-Fluorophenyl)-2-[2-(quinolin-2-yl)ethyl]phthalazin-1(2H)-one]: 0.1 to 0.2 µM; `O=c1c2c(-c3ccncc3)csc2ccn1/C=C/c1ccc2ccccc2n1` [compound 416, 3-(pyridin-4-yl)-5-[(E)-2-(quinolin-2-yl)ethenyl]thieno[3,2-c]pyridin-4(5H)-one]: under 0.1 µM.
As to `O=c1c2c(NC3CCNCC3)cccc2cnn1CCc1cn2ccccc2n1` [compound 388, dihydrochloride], the IC50 was under 0.1 µM.

The values are drawn from patent publication US20130116241A1, “NOVEL INHIBITOR COMPOUNDS OF PHOSPHODIESTERASE TYPE 10A” (AbbVie Inc., priority 2011, published 2013).
